This assay concerns the target T1, recombinant guanylate cyclase reporter cell line (Rattus norvegicus, UniProt P19686+P20595).
T1 construct: expressed in transfected cells; host or cells: recombinant reporter cell line
T1 sequence (P19686 1-690): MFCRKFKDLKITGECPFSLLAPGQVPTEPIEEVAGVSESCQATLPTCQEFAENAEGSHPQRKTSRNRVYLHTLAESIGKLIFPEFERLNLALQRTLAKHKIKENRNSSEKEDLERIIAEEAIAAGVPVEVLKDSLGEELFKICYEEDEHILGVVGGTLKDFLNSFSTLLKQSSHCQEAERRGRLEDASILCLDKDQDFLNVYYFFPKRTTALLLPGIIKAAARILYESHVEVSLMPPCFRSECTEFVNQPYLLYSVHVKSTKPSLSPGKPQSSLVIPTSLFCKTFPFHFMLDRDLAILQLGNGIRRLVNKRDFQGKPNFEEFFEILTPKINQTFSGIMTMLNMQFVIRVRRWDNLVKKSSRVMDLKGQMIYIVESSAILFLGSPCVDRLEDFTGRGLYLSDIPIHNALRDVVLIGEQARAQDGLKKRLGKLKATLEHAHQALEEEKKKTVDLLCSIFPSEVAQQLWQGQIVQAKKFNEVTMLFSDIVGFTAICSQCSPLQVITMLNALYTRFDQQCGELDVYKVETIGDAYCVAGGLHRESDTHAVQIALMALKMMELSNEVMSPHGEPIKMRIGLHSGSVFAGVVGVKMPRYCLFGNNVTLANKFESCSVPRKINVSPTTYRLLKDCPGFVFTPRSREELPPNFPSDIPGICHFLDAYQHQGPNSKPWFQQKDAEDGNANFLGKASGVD
T1 sequence (P20595 1-619): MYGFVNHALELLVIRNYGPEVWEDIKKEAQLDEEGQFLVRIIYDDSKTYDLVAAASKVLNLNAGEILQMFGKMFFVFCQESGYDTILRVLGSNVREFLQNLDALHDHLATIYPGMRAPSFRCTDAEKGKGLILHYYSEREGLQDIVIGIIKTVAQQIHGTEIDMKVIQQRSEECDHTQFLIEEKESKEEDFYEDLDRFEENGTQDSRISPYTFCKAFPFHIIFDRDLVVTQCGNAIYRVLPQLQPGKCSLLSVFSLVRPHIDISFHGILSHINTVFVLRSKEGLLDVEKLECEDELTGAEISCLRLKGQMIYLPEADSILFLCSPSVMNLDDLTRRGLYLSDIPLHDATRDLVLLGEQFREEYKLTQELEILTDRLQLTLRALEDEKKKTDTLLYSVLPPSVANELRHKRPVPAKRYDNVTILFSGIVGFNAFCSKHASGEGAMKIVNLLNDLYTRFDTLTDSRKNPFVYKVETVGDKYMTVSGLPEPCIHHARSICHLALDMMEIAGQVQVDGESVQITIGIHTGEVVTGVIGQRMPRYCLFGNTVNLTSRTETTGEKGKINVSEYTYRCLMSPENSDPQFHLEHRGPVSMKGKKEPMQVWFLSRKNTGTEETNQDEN
The assay is described as follows: Action on recombinant guanylate cyclase reporter cell line. Type of assay: cell-based. As to conditions: in some cases mean values from individual determinations. The essentials:
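Compounds are tested on whole cells carrying a guanylate cyclase reporter construct. The lowest concentration giving an effect is recorded as the MEC.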

Take `Cc1nc2c(OCc3c(F)cccc3F)cccn2c1C(=O)NCC(N)C(C)C` (single isomer, unassigned) [Example 229, ent-N-(2-Amino-3-methylbutyl)-8-[(2,6-difluorobenzyl)oxy]-2-methylimidazo[1,2-a]pyridine-3-carboxamide]: the “MEC (minimal effective concentration)” value was 1.00 µM.

For `Cc1nc2c(OCc3c(F)cccc3F)cccn2c1C(=O)NCC(N)C(F)(F)C(F)F` (single isomer, unassigned) [Example 231, ent-N-(2-Amino-3,3,4,4-tetrafluorobutyl)-8-[(2,6-difluorobenzyl)oxy]-2-methylimidazo[1,2-a]-pyridine-3-carboxamide], the “MEC (minimal effective concentration)” value was 0.30 µM. With `CCCC(C)(N)CNC(=O)c1c(C)nc2c(OCc3c(F)cccc3F)cc(C)cn12` (single isomer, unassigned) [Example 233, ent-N-(2-Amino-2-methylpentyl)-8-[(2,6-difluorobenzyl)oxy]-2,6-dimethylimidazo[1,2-a]pyridine-3-carboxamide] the figure was 0.10 µM; with `CCCC(C)(N)CNC(=O)c1c(C)nc2c(OCc3c(F)cccc3F)cc(C)cn12` (single isomer, unassigned) [Example 234, ent-N-(2-Amino-2-methylpentyl)-8-[(2,6-difluorobenzyl)oxy]-2,6-dimethylimidazo[1,2-a]pyridine-3-carboxamide], 0.03 µM. For `Cc1nc2c(OCc3c(F)cccc3F)cc(Cl)cn2c1C(=O)NCC(C)(N)C(F)(F)F` (single isomer, unassigned) [Example 237, ent-N-(2-Amino-3,3,3-trifluoro-2-methylpropyl)-6-chloro-8-[(2,6-difluorobenzyl)oxy]-2-methyl-imidazo[1,2-a]pyridine-3-carboxamide], the “MEC (minimal effective concentration)” value was determined as 0.30 µM.

Consider `Cc1nc2c(OCc3c(F)cccc3F)cc(Cl)cn2c1C(=O)NCC(C)(N)C(F)(F)F` (single isomer, unassigned) [Example 238, ent-N-(2-Amino-3,3,3-trifluoro-2-methylpropyl)-6-chloro-8-[(2,6-difluorobenzyl)oxy]-2-methyl-imidazo[1,2-a]pyridine-3-carboxamide], for which the “MEC (minimal effective concentration)” value was 1.00 µM. With `Cc1cc(OCc2c(F)cccc2F)c2nc(C)c(C(=O)NCC(C)(N)C(F)(F)F)n2c1` (single isomer, unassigned) [Example 240, ent-N-(2-Amino-3,3,3-trifluoro-2-methylpropyl)-8-[(2,6-difluorobenzyl)oxy]-2,6-dimethylimidazo-[1,2-a]pyridine-3-carboxamide], the “MEC (minimal effective concentration)” value was determined as 0.30 µM. With `Cc1cc(OCc2c(F)cccc2F)c2nc(C)c(C(=O)NCC(C)(N)C(F)(F)F)n2c1` (single isomer, unassigned) [Example 241, ent-N-(2-Amino-3,3,3-trifluoro-2-methylpropyl)-8-[(2,6-difluorobenzyl)oxy]-2,6-dimethylimidazo-[1,2-a]pyridine-3-carboxamide] the figure was 0.30 µM; with `COCC(N)CNC(=O)c1c(C)nc2c(OCc3c(F)cccc3F)cc(C)cn12` (single isomer, unassigned) [Example 242, ent-N-(2-Amino-3-methoxypropyl)-8-[(2,6-difluorobenzyl)oxy]-2,6-dimethylimidazo[1,2-a]-pyridine-3-carboxamide], 0.30 µM; with `COCC(N)CNC(=O)c1c(C)nc2c(OCc3c(F)cccc3F)cc(C)cn12` (single isomer, unassigned) [Example 243, ent-N-(2-Amino-3-methoxypropyl)-8-[(2,6-difluorobenzyl)oxy]-2,6-dimethylimidazo[1,2-a]-pyridine-3-carboxamide], 1.00 µM. On to `Cc1cc(OCc2c(F)cccc2F)c2nc(C)c(C(=O)NC3CCC(N)C3)n2c1` (single isomer, unassigned) [Example 309, ent-N-(3-aminocyclopentyl)-8-[(2,6-difluorobenzyl)oxy]-2,6-dimethylimidazo[1,2-a]pyridine-3-carboxamide], for which the “MEC (minimal effective concentration)” value was 0.30 µM. Regarding `Cc1nc2c(OCc3c(F)cccc3F)cccn2c1C(=O)NC(CN)CC(C(F)(F)F)C(F)(F)F` (single isomer, unassigned; enantiomer a) [Example 7, ent-N-[1-Amino-5,5,5-trifluoro-4-(trifluoromethyl)pentan-2-yl]-8-[(2,6-difluorobenzyl)oxy]-2-methylimidazo[1,2-a]pyridine-3-carboxamide (Enantiomer A)], the “MEC (minimal effective concentration)” value is 1.00 µM. Consider `Cc1nc2c(OCc3c(F)cccc3F)cccn2c1C(=O)NC(CN)c1ccc(F)c(F)c1` (single isomer, unassigned; enantiomer a) [Example 12, ent-N-[2-Amino-1-(3,4-difluorophenyl)ethyl]-8-[(2,6-difluorobenzyl)oxy]-2-methylimidazo[1,2-a]-pyridine-3-carboxamide (Enantiomer A)], for which the “MEC (minimal effective concentration)” value was 1.00 µM.

Turning to `CCCC(C)(N)CNC(=O)c1c(C)nc2c(OCc3c(F)cccc3F)cc(Cl)cn12` (single isomer, unassigned; enantiomer a) [Example 245, ent-N-(2-Amino-2-methylpentyl)-6-chloro-8-[(2,6-difluorobenzyl)oxy]-2-methylimidazo[1,2-a]-pyridine-3-carboxamide (Enantiomer A)], the “MEC (minimal effective concentration)” value came out at 0.10 µM. `COCC(N)CNC(=O)c1c(C)nc2c(OCc3c(F)cccc3F)cccn12` (single isomer, unassigned; enantiomer a) [Example 247, ent-N-(2-Amino-3-methoxypropyl)-8-[(2,6-difluorobenzyl)oxy]-2-methylimidazo[1,2-a]pyridine-3-carboxamide (Enantiomer A)]: the “MEC (minimal effective concentration)” value turned out to be 3.00 µM.

On to `Cc1cc(OCc2c(F)cccc2F)c2nc(C)c(C(=O)NCC(C)(N)C3CC3)n2c1` (single isomer, unassigned; enantiomer a) [Example 260, ent-N-(2-Amino-2-cyclopropylpropyl)-8-[(2,6-difluorobenzyl)oxy]-2,6-dimethylimidazo[1,2-a]-pyridine-3-carboxamide (Enantiomer A)], for which the “MEC (minimal effective concentration)” value turned out to be 0.10 µM. Then `Cc1nc2c(OCc3c(F)cccc3F)cccn2c1C(=O)NCC(C)(N)CCOCc1ccccc1` (single isomer, unassigned; enantiomer a) [Example 266, ent-N-[2-Amino-4-(benzyloxy)-2-methylbutyl]-8-[(2,6-difluorobenzyl)oxy]-2-methylimidazo[1,2-a]pyridine-3-carboxamide (Enantiomer A)], with 0.03 µM; and `Cc1cc(OCc2c(F)cccc2F)c2nc(C)c(C(=O)NCC(C)(N)CO)n2c1` (single isomer, unassigned; enantiomer a) [Example 268, ent-N-(2-Amino-3-hydroxy-2-methylpropyl)-8-[(2,6-difluorobenzyl)oxy]-2,6-dimethylimidazo-[1,2-a]pyridine-3-carboxamide (Enantiomer A)], with 0.55 µM.

Regarding `Cc1cc(OCc2c(F)cccc2F)c2nc(C)c(C(=O)NCC(C)(N)CCO)n2c1` (single isomer, unassigned; enantiomer a) [Example 271, ent-N-(2-Amino-4-hydroxy-2-methylbutyl)-8-[(2,6-difluorobenzyl)oxy]-2,6-dimethylimidazo[1,2-a]pyridine-3-carboxamide (Enantiomer A)], the “MEC (minimal effective concentration)” value was determined as 0.30 µM. With `Cc1nc2c(OCc3c(F)cccc3F)cccn2c1C(=O)NCC(C)(N)CCO` (single isomer, unassigned; enantiomer a) [Example 272, ent-N-(2-Amino-4-hydroxy-2-methylbutyl)-8-[(2,6-difluorobenzyl)oxy]-2-methylimidazo[1,2-a]-pyridine-3-carboxamide (Enantiomer A)] the figure was 5.5 µM.

For the origin of these results see patent publication US20150274719A1, “AMINO-SUBSTITUTED IMIDAZO[1,2-A]PYRIDINECARBOXAMIDES AND THEIR USE” (BAYER PHARMA AKTIENGESELLSCHAFT, priority 2012, published 2015).
